Test results as given in patent US12240839B2, “Cyclobutyl dihydroquinoline sulfonamide compounds” (AMGEN INC., priority 2020, dated 2025).

What follows are compounds tested against Human Nav1.7 (Homo sapiens (Human), UniProt Q15858) (assay: IonWorks Barracuda (IWB) automated patch clamp assay). Conditions: human Nav1.7 in HEK cells, population patch-clamp, state- and use-dependent voltage protocol; read-out: hNaV1.7 IWB-U IC50.
Type: cell-based
Description: IonWorks Barracuda (IWB) Automated Patch Clamp Assay (Same Protocol for Both Human and Mouse)
Human Nav1.7 currents were recorded in population patch-clamp mode with the IWB automated electrophysiology system (Molecular Devices, LLC, Sunnyvale, CA). Spiking HEK cells (without Kir2.1 transfection) were cultured and prepared for recordings as previously described for IonWorks Quattro testing^1. The external solution consisted of the following (in mM): NaCl 140, KCl 5, CaCl2 2, MgCl2 1, HEPES 10, and glucose 11, pH 7.4, with N-methyl-D-glucamine at 320 mOsmol. […] From a holding potential of −110 mV, currents were elicited by a train of 26 depolarizations of 150 ms duration to −20 mV at a frequency of 5 Hz. Cells were then clamped to −20 mV for a period of 4 minutes in the presence of a single concentration of test compound. Following this compound incubation period, cells were clamped to −110 mV for three seconds to recover unbound channels and put through the same 26 pulse voltage protocol as above. Peak inward current during the 26th pulse to −20 mV in the presence of compound was divided by the peak inward current evoked by the 26th pulse to −20 mV in the absence of compound to determine percent inhibition. Concentration-response curves of percent inhibition as a function of concentration were generated to calculate IC50 values as described in Kornecook, T. J.; Yin, R.; Altmann, S.; et al. Pharmacologic Characterization of AMG8379, a Potent and Selective Small Molecule Sulfonamide Antagonist of the Voltage-Gated Sodium Channel NaV1. 7.
The potency of the compounds of the present invention were evaluated on human Nav1.7 channels using the above described IonWorks Barracuda automated electrophysiology platform that evaluates the ability of compounds to block sodium conductance through Nav1.7 channels. A voltage-protocol that prosecutes both state-dependent as well as use-dependent inhibition was used as these modes of action are thought to be more relevant for the native state of Nav1.7 channels in pain sensing neurons in vivo.

Chain of Human Nav1.7 (Q15858 whole entry): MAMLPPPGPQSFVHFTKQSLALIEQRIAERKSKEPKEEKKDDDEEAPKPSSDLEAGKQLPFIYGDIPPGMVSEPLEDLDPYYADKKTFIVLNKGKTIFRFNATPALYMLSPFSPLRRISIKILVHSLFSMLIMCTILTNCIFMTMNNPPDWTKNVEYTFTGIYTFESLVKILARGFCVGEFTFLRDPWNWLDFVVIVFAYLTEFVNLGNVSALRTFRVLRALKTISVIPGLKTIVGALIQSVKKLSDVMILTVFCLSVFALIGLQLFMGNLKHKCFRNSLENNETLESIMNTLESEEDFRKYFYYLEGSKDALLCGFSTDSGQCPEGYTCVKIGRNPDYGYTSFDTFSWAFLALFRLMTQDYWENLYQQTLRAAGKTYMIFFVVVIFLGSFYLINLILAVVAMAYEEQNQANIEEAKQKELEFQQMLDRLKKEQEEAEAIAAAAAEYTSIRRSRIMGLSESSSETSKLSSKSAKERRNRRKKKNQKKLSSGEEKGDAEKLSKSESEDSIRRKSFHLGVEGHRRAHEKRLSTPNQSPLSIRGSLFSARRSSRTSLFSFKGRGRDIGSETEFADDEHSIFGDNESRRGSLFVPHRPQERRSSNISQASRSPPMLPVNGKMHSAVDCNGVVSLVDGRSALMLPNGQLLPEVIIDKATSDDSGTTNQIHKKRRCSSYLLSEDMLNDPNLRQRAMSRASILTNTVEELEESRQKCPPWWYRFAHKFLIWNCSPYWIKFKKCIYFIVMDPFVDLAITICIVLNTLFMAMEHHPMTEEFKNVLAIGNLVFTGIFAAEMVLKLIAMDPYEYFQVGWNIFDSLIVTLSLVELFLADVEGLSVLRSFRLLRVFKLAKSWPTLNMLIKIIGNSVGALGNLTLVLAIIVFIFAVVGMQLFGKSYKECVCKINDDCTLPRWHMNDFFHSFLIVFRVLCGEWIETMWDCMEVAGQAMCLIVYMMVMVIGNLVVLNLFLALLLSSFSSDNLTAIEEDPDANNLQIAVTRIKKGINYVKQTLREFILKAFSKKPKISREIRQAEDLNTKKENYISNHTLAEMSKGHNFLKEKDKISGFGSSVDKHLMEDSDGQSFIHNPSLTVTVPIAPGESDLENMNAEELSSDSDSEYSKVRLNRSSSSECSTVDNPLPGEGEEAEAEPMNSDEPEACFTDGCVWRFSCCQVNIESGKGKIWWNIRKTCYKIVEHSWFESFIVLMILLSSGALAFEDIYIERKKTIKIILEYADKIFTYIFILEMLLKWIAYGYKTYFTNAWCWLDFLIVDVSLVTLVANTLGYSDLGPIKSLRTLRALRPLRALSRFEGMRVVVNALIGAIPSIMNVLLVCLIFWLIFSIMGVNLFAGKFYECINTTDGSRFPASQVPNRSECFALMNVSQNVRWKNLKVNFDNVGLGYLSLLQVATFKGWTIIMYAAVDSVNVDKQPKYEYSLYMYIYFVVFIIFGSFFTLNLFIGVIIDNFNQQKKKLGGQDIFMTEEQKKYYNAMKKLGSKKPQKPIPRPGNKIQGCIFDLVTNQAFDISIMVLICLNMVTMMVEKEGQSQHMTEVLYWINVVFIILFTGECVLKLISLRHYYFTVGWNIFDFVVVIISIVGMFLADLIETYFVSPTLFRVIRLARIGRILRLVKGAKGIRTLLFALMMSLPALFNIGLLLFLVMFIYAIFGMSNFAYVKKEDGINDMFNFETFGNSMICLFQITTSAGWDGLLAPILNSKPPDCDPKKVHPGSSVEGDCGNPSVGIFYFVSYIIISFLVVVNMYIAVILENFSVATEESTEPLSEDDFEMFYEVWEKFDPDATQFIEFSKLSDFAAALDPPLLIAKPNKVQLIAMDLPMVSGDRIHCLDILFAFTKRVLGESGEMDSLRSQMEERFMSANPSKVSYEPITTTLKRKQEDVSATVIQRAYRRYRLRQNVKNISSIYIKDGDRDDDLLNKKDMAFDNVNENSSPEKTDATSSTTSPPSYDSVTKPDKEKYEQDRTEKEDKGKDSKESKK

Compound	IC50
COc1cc(C2CC(C(F)(F)F)C2)c(F)cc1-n1c(=O)ccc2cc(S(=O)(=O)Nc3ccon3)ccc21 (atropisomer, axis not shown; (P)) [Example 6, cis-(P)-1-(5-fluoro-2-methoxy-4-(3-(trifluoromethyl)cyclobutyl)phenyl)-N-(isoxazol-3-yl)-2-oxo-1,2-dihydroquinoline-6-sulfonamide]	11 nM
COc1cc(C2CC(C(F)(F)F)C2)c(Cl)cc1-n1c(=O)ccc2cc(S(=O)(=O)Nc3ccon3)ccc21 (atropisomer, axis not shown; (P)) [Example 12, cis-(P)-1-(5-chloro-2-methoxy-4-((1S,3S)-3-(trifluoromethyl)cyclobutyl)phenyl)-N-(isoxazol-3-yl)-2-oxo-1,2-dihydroquinoline-6-sulfonamide]	7 nM
COc1cc([C@H]2C[C@H](C(F)(F)F)C2)c(C)cc1-n1c(=O)ccc2cc(S(=O)(=O)Nc3ncccn3)ccc21 (atropisomer, axis not shown; (P)) [Example 37, trans-(P)-1-(2-methoxy-5-methyl-4-(3-(trifluoromethyl)cyclobutyl)phenyl)-2-oxo-N-(pyrimidin-2-yl)-1,2-dihydroquinoline-6-sulfonamide]	62 nM
COc1cc(C2CC(C(C)(C)C)C2)c(F)cc1-n1c(=O)ccc2cc(S(=O)(=O)Nc3ccon3)ccc21 (racemic) [Example 2, 1-(4-(3-(tert-butyl)cyclobutyl)-5-fluoro-2-methoxyphenyl)-N-(isoxazol-3-yl)-2-oxo-1,2-dihydroquinoline-6-sulfonamide]	25 nM
COc1cc([C@H]2C[C@H](C(F)(F)F)C2)c(F)cc1-n1c(=O)ccc2cc(S(=O)(=O)Nc3ccon3)ccc21 (single isomer, unassigned) [Example 7, trans-(P)-1-(5-fluoro-2-methoxy-4-(3-(trifluoromethyl)cyclobutyl)phenyl)-N-(isoxazol-3-yl)-2-oxo-1,2-dihydroquinoline-6-sulfonamide]	7 nM
COc1cc([C@H]2C[C@H](C(F)(F)F)C2)c(Cl)cc1-n1c(=O)ccc2cc(S(=O)(=O)Nc3ccon3)ccc21 (single isomer, unassigned) [Example 13]	6 nM
COc1cc(C2CC(OC(F)(F)F)C2)c(F)cc1-n1c(=O)ccc2cc(S(=O)(=O)Nc3ccon3)ccc21 (single isomer, unassigned) [Example 44, cis-(P)-1-(5-fluoro-2-methoxy-4-(3-(trifluoromethoxy)cyclobutyl)phenyl)-N-(isoxazol-3-yl)-2-oxo-1,2-dihydroquinoline-6-sulfonamide]	7 nM

What follows are compounds tested on CYP3A4 (assay: not given). Conditions: hepatocytes.

Compound	Hu CYP3A4 mRNA Induction (10 uM POC)
COc1cc([C@H]2C[C@@](F)(C(F)(F)F)C2)c(F)cc1-n1c(=O)ccc2cc(S(=O)(=O)Nc3ccon3)ccc21 (atropisomer, axis not shown; (P)) [Example 8, trans-(P)-1-(5-fluoro-4-(3-fluoro-3-(trifluoromethyl)cyclobutyl)-2-methoxyphenyl)-N-(isoxazol-3-yl)-2-oxo-1,2-dihydroquinoline-6-sulfonamide]	10.51%

These compounds were tested on CYP3A4 (assay: Human CYP3A4 induction assay (mRNA, cryopreserved human hepatocytes)). Conditions: 10 uM test compound, 72 hours, percent of control (rifampin positive control).
Description: Human CYP3A4 Induction Assay
Cryopreserved human hepatocytes were seeded in 96-well collagen coated plates at 70,000 cells per well in hepatocyte plating media (HPM, final concentrations: 1× Dulbecco's Modified Eagle's Medium, 0.1 μM dexamethasone, 10% fetal bovine serum, 1×ITS, 1×PSG) followed by incubation at 37° C. under 5% CO2 and 90% relative humidity for 2 days to allow hepatocytes to form a confluent layer. On Day 3, hepatocytes were treated with either test compound or rifampin (20 μM, positive control for CYP3A induction) prepared in hepatocyte incubation media ((HIM, final concentrations: 1× William's Medium E, 0.1 μM dexamethasone, 1×ITS, 1×PSG). Treatment was performed for 72 hours with either 2 concentrations (2 μM or 10 μM) or a range of concentrations (0.001 μM to 100 μM) of the test compound to obtain full dose-response curve. Fresh media containing the relevant concentrations of the test compound was replaced every day until the samples were processed. After 72 hours of incubation, samples were processed for mRNA analysis using bDNA technology using manufacturer's instructions (Affymetrix, Fremont, CA). Cell viability was tested at the end of the experiment using MTT assay kit (Roche Diagnostics, Basel, Switzerland). Data was analyzed and presented as percent of control (POC) and Emax and EC50 obtained when appropriate according to guidance from Center for Drug Evaluation and Research (CDER), 2006, Guidance for Industry, Drug Interaction Studies—Study Design, Data Analysis, and Implications for Dosing and Labeling.

Compound	Hu CYP3A4 mRNA Induction (10 uM POC)
COc1cc(C2CC(F)(F)C2)c(F)cc1-n1c(=O)ccc2cc(S(=O)(=O)Nc3ccon3)c(F)cc21 (atropisomer, axis not shown; (P)) [Example 41, (P)-1-(4-(3,3-difluorocyclobutyl)-5-fluoro-2-methoxyphenyl)-7-fluoro-N-(isoxazol-3-yl)-2-oxo-1,2-dihydroquinoline-6-sulfonamide]	52.8%
COc1cc(C23CC(C(F)(F)F)(C2)C3)c(F)cc1-n1c(=O)ccc2cc(S(=O)(=O)Nc3ccon3)ccc21 (atropisomer, axis not shown; (P)) [Example 42, (P)-1-(5-fluoro-2-methoxy-4-(3-(trifluoromethyl)bicyclo[1.1.1]pentan-1-yl)phenyl)-N-(isoxazol-3-yl)-2-oxo-1,2-dihydroquinoline-6-sulfonamide]	19.25%
COc1cc([C@H]2C[C@H](C(F)(F)F)C2)c(F)cc1-n1c(=O)ccc2cc(S(=O)(=O)Nc3ncco3)ccc21 (atropisomer, axis not shown; (P)) [Example 43, (P)-1-(5-fluoro-2-methoxy-4-(3-(trifluoromethyl)cyclobutyl)phenyl)-N-(oxazol-2-yl)-2-oxo-1,2-dihydroquinoline-6-sulfonamide]	68.28%
COc1cc([C@H]2C[C@H](C(F)(F)F)C2)c(F)cc1-n1c(=O)ccc2c(F)c(S(=O)(=O)Nc3ccon3)ccc21 (atropisomer, axis not shown; (P)) [Example 46, trans-(P)-5-fluoro-1-(5-fluoro-2-methoxy-4-(3-(trifluoromethyl)cyclobutyl)phenyl)-N-(isoxazol-3-yl)-2-oxo-1,2-dihydroquinoline-6-sulfonamide]	6.6%
COc1cc(C23CC(C(F)(F)F)(C2)C3)c(F)cc1-n1c(=O)ccc2cc(S(=O)(=O)Nc3ncccn3)ccc21 (atropisomer, axis not shown; (P)) [Example 47, (P)-1-(5-fluoro-2-methoxy-4-(3-(trifluoromethyl)bicyclo[1.1.1]pentan-1-yl)phenyl)-2-oxo-N-(pyrimidin-2-yl)-1,2-dihydroquinoline-6-sulfonamide]	19.64%
COc1cc(C2CC(F)(F)C2)c(Cl)cc1-n1c(=O)ccc2cc(S(=O)(=O)Nc3ccon3)ccc21 (atropisomer, axis not shown; (P)) [Example 48, (P)-1-(5-chloro-4-(3,3-difluorocyclobutyl)-2-methoxyphenyl)-N-(isoxazol-3-yl)-2-oxo-1,2-dihydroquinoline-6-sulfonamide]	110.2%
COc1cc([C@H]2C[C@H](C(F)(F)F)C2)c(Cl)cc1-n1c(=O)ccc2cc(S(=O)(=O)Nc3ncco3)ccc21 (atropisomer, axis not shown; (P)) [Example 49, trans (P)-1-(5-chloro-2-methoxy-4-((1R,3R)-3-(trifluoromethyl)cyclobutyl)phenyl)-N-(oxazol-2-yl)-2-oxo-1,2-dihydroquinoline-6-sulfonamide]	64.94%
COc1cc([C@H]2C[C@@H](C(F)(F)F)C2)c(F)cc1-n1c(=O)ccc2cc(S(=O)(=O)Nc3ccon3)ccc21 (single isomer, unassigned) [Example 6, cis-(P)-1-(5-fluoro-2-methoxy-4-(3-(trifluoromethyl)cyclobutyl)phenyl)-N-(isoxazol-3-yl)-2-oxo-1,2-dihydroquinoline-6-sulfonamide]	83.89%
COc1cc([C@H]2C[C@H](C(F)(F)F)C2)c(F)cc1-n1c(=O)ccc2cc(S(=O)(=O)Nc3ccon3)ccc21 (single isomer, unassigned) [Example 7, trans-(P)-1-(5-fluoro-2-methoxy-4-(3-(trifluoromethyl)cyclobutyl)phenyl)-N-(isoxazol-3-yl)-2-oxo-1,2-dihydroquinoline-6-sulfonamide]	16.35%
COc1cc([C@H]2C[C@H](C(F)(F)F)C2)c(Cl)cc1-n1c(=O)ccc2cc(S(=O)(=O)Nc3ccon3)ccc21 (single isomer, unassigned) [Example 12]	68.98%
COc1cc([C@H]2C[C@H](C(F)(F)F)C2)c(Cl)cc1-n1c(=O)ccc2cc(S(=O)(=O)Nc3ccon3)ccc21 (single isomer, unassigned) [Example 13]	46.85%
COc1cc([C@H]2C[C@H](OC(F)(F)F)C2)c(F)cc1-n1c(=O)ccc2cc(S(=O)(=O)Nc3ccon3)ccc21 (single isomer, unassigned) [Example 45, trans-(P)-1-(5-fluoro-2-methoxy-4-(3-(trifluoromethoxy)cyclobutyl)phenyl)-N-(isoxazol-3-yl)-2-oxo-1,2-dihydroquinoline-6-sulfonamide]	36.685%
COc1cc(C2CC2)c(F)cc1-n1c(=O)ccc2cc(S(=O)(=O)Nc3ccon3)ccc21 [Compound X, 1-(4-cyclopropyl-5-fluoro-2-methoxyphenyl)-N-(isoxazol-3-yl)-2-oxo-1,2-dihydroquinoline-6-sulfonamide, reference compound]	84.31%
